Assay [1] can be described thus: Cytotoxicity against Mus musculus (mouse) EAC cells assessed as dead cell at ED100 ug/cm'3 after 2 hr by trypan blue assay. The format is functional, Ehrlich.
Assay [2] in a line: Cytotoxicity against Mus musculus (mouse) EAC cells assessed as dead cell at ED25 ug/cm'3 after 2 hr by trypan blue assay. The format is functional, Ehrlich.
Assay [3] in a line: Cytotoxicity against Mus musculus (mouse) EAC cells assessed as dead cell at ED50 ug/cm'3 after 2 hr by trypan blue assay. The format is functional, Ehrlich.
Assay [4] in a line: Antioxidant activity assessed as inhibition of ABTS free radical. In kind it is functional. Set-up: concentration or dose not given beside the values. The note with it: dose or concentration not given here.

As usually defined, the inhibition is the share of the control response that was lost under treatment. For `Nc1c(C(=O)c2cc3ccccc3oc2=O)sc(Nc2ccccc2)c1-c1nc2ccccc2[nH]1`, the Activity is recorded as 5.6% in assay [1], 1.4% in assay [2] and 2.6% in assay [3]. Besides, the inhibition in assay [4] worked out at 0.19%.

For `O=c1[nH]cc(F)c(=O)[nH]1` [FLUOROURACIL], the Activity worked out at 93% in assay [1], 37% in assay [2] and 58% in assay [3].

On to `O=C1O[C@H]([C@@H](O)CO)C(O)=C1O`, for which, in assay [4], the inhibition was 84%.

Consider `Nc1c(C(=O)c2cc3ccccc3oc2=O)sc(Nc2ccccc2)c1-c1nc2ccccc2s1`, for which the Activity in assay [1] worked out at 5.7%; in assay [2], 1.6%; in assay [3] it was 2.9%. For the same compound, in assay [4], the inhibition is 5.94%.

With `Nc1nc(-c2cc3ccccc3oc2=O)cs1`, the inhibition in assay [4] is 74.3%.

For `CC(=O)c1cc2ccccc2oc1=O`, the inhibition in assay [4] stood at 63.6%.

With `Nc1c(C(=O)c2cc3ccccc3oc2=O)sc(Nc2ccccc2)c1C(=O)N1NC(=O)C2C3c4ccccc4C(c4ccccc43)C2C1=O` (stereo not drawn), the Activity in assay [1] is given as 6.1%; in assay [2], 1.6%; in assay [3], 3%. In addition, the inhibition in assay [4] was 13.7%.

For `N#C/C(=C1/SC=C(c2cc3ccccc3oc2=O)N1c1ccccc1)c1nc2ccccc2s1`, the Activity in assay [1] worked out at 5.7%; in assay [2] it was 1.5%; in assay [3] it was 3%. In addition, in assay [4], the inhibition worked out at 4.15%.

On to `N#C/C(C(=O)Nc1nc(-c2cc3ccccc3oc2=O)cs1)=C1/SC(=O)CN1c1ccccc1`, for which the Activity in assay [1] turned out to be 7%; in assay [2], 1.6%; in assay [3], 3.1%. In addition, the inhibition in assay [4] was 28.9%.

Consider `N#C/C(C(=O)N1NC(=O)C2C3c4ccccc4C(c4ccccc43)C2C1=O)=C1/SC=C(c2cc3ccccc3oc2=O)N1c1ccccc1` (stereo not drawn), for which the Activity is 5.4% in assay [1], 1.1% in assay [2] and 2.6% in assay [3]. For the same compound, in assay [4], the inhibition came out at 5.74%.

`N#CCC(=O)Nc1nc(-c2cc3ccccc3oc2=O)cs1`: the Activity in assay [1] is listed as 8%; in assay [2] it was 1.8%; in assay [3], 3.8%. Moreover, the inhibition in assay [4] was found to be 70.3%.

For `Nc1c(C(=O)c2cc3ccccc3oc2=O)sc(S)c1-c1nc2ccccc2s1`, the inhibition in assay [4] was 75.6%.

For the compound `O=C(CBr)c1cc2ccccc2oc1=O`, in assay [4], the inhibition was 50.2%.

For the compound `Nc1c(C(=O)c2cc3ccccc3oc2=O)sc(Nc2ccccc2)c1C(=O)Nc1nc(-c2cc3ccccc3oc2=O)cs1`, the Activity amounted to 7.1% in assay [1], 1.7% in assay [2] and 3% in assay [3]. The inhibition in assay [4] turned out to be 35.4%.

On to `N#C/C(C(=O)Nc1nc(-c2cc3ccccc3oc2=O)cs1)=C(\Nc1ccccc1)SCC(=O)c1cc2ccccc2oc1=O`, for which the Activity in assay [1] is 6.8%; in assay [2], 1.5%; in assay [3], 3.2%. The inhibition in assay [4] worked out at 23.8%.

With `N=c1oc2ccccc2cc1C(=O)Nc1nc(-c2cc3ccccc3oc2=O)cs1`, the Activity came to 4.9% in assay [1], 1.3% in assay [2] and 2.1% in assay [3]. For the same compound, the inhibition in assay [4] stood at 61.4%.

The record behind these values is ChEMBL document CHEMBL3045320, “Synthesis, antitumor and antioxidant evaluation of some new thiazole and thiophene derivatives incorporated coumarin moiety” (2012).
